The values that follow come from patent US7550469B2, “Heterocyclic amide derivatives and their use as dopamine D3 receptor ligands” (Aventis Pharmaceuticals Inc., priority 2001, dated 2009).

Where two headings read alike, the source gives them in different places.

This experiment deals with T1, cloned human dopamine D3 receptors (Homo sapiens, UniProt P35462).
T1 construct: expressed in transfected cells; membrane homogenate
Briefly: [N-Methyl-3H]Spiroperidol binding to cloned human dopamine D3 receptors (Protocol 1). Put shortly: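 Radioligand displacement with [N-methyl-3H]spiroperidol used a physiological-salt Tris buffer (0.05 M, pH 7.7; NaCl 120 mM, KCl 5 mM, CaCl2 2 mM, MgCl2 1 mM) and membranes of a high-expressing stable CHO clone carrying human D3. Total ligand concentration came from measured added CPM; 0.1% ascorbic acid was optional for oxidizable compounds.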

[1] abbreviates: the 16th table, read-out: D3 Ki.
Setting [2] is: the 14th table, read-out: D3 Ki.
[3] abbreviates: the 15th table, read-out: D3 Ki.
Setting [4] is: the 23rd table, read-out: D3 Ki.
The mark [5] stands for this setting: the 13th table, unit inferred, read-out: D3Ki.
Setting [6] is: the 26th table, read-out: D3 Ki.
[7] abbreviates: the 18th table, read-out: D3 Ki.
Where [8] appears, read: the 19th table, read-out: D3 Ki.

T1 sequence (P35462 whole entry): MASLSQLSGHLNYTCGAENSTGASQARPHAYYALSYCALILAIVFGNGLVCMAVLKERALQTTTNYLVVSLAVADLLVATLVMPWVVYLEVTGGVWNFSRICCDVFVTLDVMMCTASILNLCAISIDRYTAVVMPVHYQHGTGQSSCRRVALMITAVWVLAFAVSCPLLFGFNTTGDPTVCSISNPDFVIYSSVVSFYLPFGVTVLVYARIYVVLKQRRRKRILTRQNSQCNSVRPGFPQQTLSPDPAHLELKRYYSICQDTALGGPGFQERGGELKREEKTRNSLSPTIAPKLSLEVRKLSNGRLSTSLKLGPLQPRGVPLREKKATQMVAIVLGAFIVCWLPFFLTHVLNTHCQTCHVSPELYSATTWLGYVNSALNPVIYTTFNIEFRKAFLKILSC

Regarding `O=C(NCCC(CO)CN1CCN(c2csc3cc(C(F)(F)F)ccc23)CC1)c1ccc2ccccc2c1` (stereo not drawn) [818619ES], the Ki (Table 2, read-out: D3K1) amounted to 324 nM. In the case of `O=C(NCCCCN1CCCN(c2csc3cc(F)ccc23)CC1)c1cc2cccc(F)c2o1` [compound 827120], the Ki reads like this: (Table 2, read-out: D3K1) 32.9 nM; under setting [1], 32.9 nM. Consider `Cn1c(C(=O)NCCCCCCN2CCN(c3csc4cc(C(F)(F)F)ccc34)CC2)cc2ccccc21` [compound 826739], for which the Ki runs as follows: (read-out: D3K1) 2.1 nM; under setting [2], 2.1 nM.

As for `COc1ccc(C(=O)NCCCCN2C3CCC2CC(c2noc4ccccc24)C3)cc1` (stereo not drawn) [compound 816534], the Ki under setting [3] is 149 nM. On to `COc1ccc(CNCC2CC2CN2CCN(c3csc4cc(C(F)(F)F)ccc34)CC2)cc1` (racemic) [compound 831909], for which the Ki under setting [4] amounted to 41.5 nM. With `COc1cc(OC)cc(C(=O)NCCCCCCN2CCN(c3csc4cc(C(F)(F)F)ccc34)CC2)c1` [compound 826748], the Ki runs as follows: (read-out: D3K1) 4.9 nM; under setting [2], 4.9 nM. Consider `O=C(Cc1ccccc1F)NCCCCN1CCCN(c2csc3cc(F)ccc23)CC1` [S982514], for which the Ki under setting [5] came out at 0.59 nM. On to `O=C(NCC1CCC1CN1CCN(c2csc3cc(C(F)(F)F)ccc23)CC1)c1cc2ccccc2s1` (stereo not drawn) [compound 826292], for which the Ki (read-out: D3K1) is 200 nM. Consider `O=C(NCCCCCN1CCN(c2csc3cc(C(F)(F)F)ccc23)CC1)c1ccc(OC(F)(F)F)cc1` [compound 826767], for which the Ki (read-out: D3K1) is 14 nM and the Ki under setting [2] came to 14 nM. `OC(CCN1CCC(c2noc3ccsc23)CC1)CN1CCC(Cc2ccccc2)CC1` (stereo not drawn) [compound 831944]: the Ki under setting [6] came out at 38.5 nM. With `O=C(NCCCCN1CCN(c2c(Cl)sc3cc(C(F)(F)F)ccc23)CC1)c1ccc([N+](=O)[O-])cc1` [compound 815569], under “read-out: D3K1”, the Ki came to 13 nM. For `O=C(NCCCCN1C2CCC1CC(c1noc3ccccc13)C2)c1cccc(F)c1F` (stereo not drawn) [compound 816540], the Ki under setting [3] was found to be 225 nM. For the compound `O=C(N[C@H](CO)CCCN1CCN(c2csc3cc(C(F)(F)F)ccc23)CC1)c1cnccn1` [compound 815702], the Ki (Table 2, read-out: D3K1) amounted to 439 nM; the Ki (read-out: D3K1) was determined as 439 nM; the Ki under setting [2] was found to be 439 nM. On to `CCCCCCc1ccc(C(=O)NCCCCN2C3CCC2CC(c2noc4ccccc24)C3)cc1` (stereo not drawn) [compound 816527], for which the Ki under setting [3] came out at 64.8 nM. In the case of `O=C(NCCCCN1CCCN(c2csc3cc(F)ccc23)CC1)c1cc2ccccc2[nH]1` [S977818], under setting [5], the Ki was found to be 1.85 nM.

On to `CCOc1ccc(C(=O)NCCCCCN2CCC(c3noc4ccsc34)CC2)cc1` [compound 816198], for which the Ki under setting [5] turned out to be 110 nM. On the same count and under the same terms, the same measure for `O=C(NCCCCCN1CCCN(c2csc3cc(F)ccc23)CC1)c1cc2ccccc2[nH]1` [S984504]: 17.1 nM. Regarding `O=C(NCCCCCN1CCN(c2csc3cc(F)ccc23)CC1)c1n[nH]c2ccccc12` [compound 826791], under setting [2], the Ki is 11.9 nM. On to `O=C(NCCCCN1CCN(c2noc3ccsc23)CC1)c1cc(C(F)(F)F)ccc1F` [compound 829691], for which the Ki (the 22nd table, read-out: D3 Ki) turned out to be 151 nM. As for `COc1ccccc1C(=O)NCCCCN1C2CCC1CC(c1noc3ccccc13)C2` (stereo not drawn) [compound 816525], the Ki under setting [3] turned out to be 148 nM. In the case of `O=C(NCc1sccc1CN1CCN(c2csc3cc(F)ccc23)CC1)c1cccs1` [compound 826295], under setting [7], the Ki was 46 nM. The same measure, in the same setting: for `O=C(NCc1sccc1CN1CCN(c2csc3cc(F)ccc23)CC1)c1ccc2cc[nH]c2c1` [compound 826328] the value was 28 nM. Take `O=C(NCCCN1CCCN(c2csc3cc(F)ccc23)CC1)c1cc2ccccc2s1` [compound 827143]: the Ki was determined as 123 nM (Table 2, read-out: D3K1) and 123 nM under setting [1]. For the compound `O=C(NCc1sccc1CN1CCN(c2csc3cc(F)ccc23)CC1)c1cc2sccc2s1` [compound 826320], the Ki under setting [7] is 75.3 nM. Turning to `O=C(NCCCCCN1CCC(c2noc3ccsc23)CC1)c1cccc(Cl)c1` [compound 816214], under setting [5], the Ki was found to be 264 nM. Take `Cc1nc(Cl)c(Cl)n1CCCNCC1CC1CN1CCN(c2csc3cc(C(F)(F)F)ccc23)CC1` (racemic) [compound 832644]: the Ki under setting [4] was determined as 97.5 nM. On to `O=C(NCc1sccc1CN1CCN(c2csc3cc(F)ccc23)CC1)c1cnc2ccccc2n1` [compound 826310], for which the Ki under setting [7] was determined as 203 nM. As to `OC(CCN1CCC(c2noc3ccsc23)CC1)CNCCc1ccccc1` (stereo not drawn) [compound 831945], the Ki under setting [6] stood at 700 nM. Take `COc1ccc2[nH]c(C(=O)NCC3CCC3CN3CCN(c4csc5cc(C(F)(F)F)ccc45)CC3)cc2c1` (stereo not drawn) [compound 826291]: the Ki (read-out: D3K1) was 37 nM. For `O=C(NCCCCN1CCCN(c2csc3cc(F)ccc23)CC1)c1ccc2nonc2c1` [compound 826699], the Ki by setting is: (Table 2, read-out: D3K1) 6.73 nM; under setting [1], 6.73 nM. With `COc1ccc(C(=O)Nc2cccc(CN3CCN(c4csc5cc(F)ccc45)CC3)c2)cc1OC` [compound 822180], the Ki under setting [8] amounted to 26.5 nM. Consider `O=C(NCCCCN1CCN(c2c(Cl)sc3cc(F)ccc23)CC1)c1ccc(Br)cc1` [compound 815063], for which the Ki (read-out: D3K1) is 6.3 nM. For the compound `O=C(NCc1sccc1CN1CCN(c2csc3cc(F)ccc23)CC1)c1cc2ccccc2o1` [compound 826331], the Ki under setting [7] is 51 nM. For `Cc1ccccc1C(=O)Nc1cccc(CN2CCN(c3csc4cc(F)ccc34)CC2)c1` [compound 822183], the Ki under setting [8] worked out at 154 nM. Take `O=C(NCCCCCN1CCN(c2csc3cc(F)ccc23)CC1)c1cccc(C(F)(F)F)c1` [compound 826780]: the Ki under setting [2] came out at 4.46 nM.

As for `CCCCOc1ccc(C(=O)NCCCCN2CCN(c3c(Cl)sc4cc(C(F)(F)F)ccc34)CC2)cc1` [compound 815564], the Ki (read-out: D3K1) turned out to be 159 nM. Turning to `O=C(NCC(CO)CCN1CCN(c2csc3cc(C(F)(F)F)ccc23)CC1)c1cccc(C(=O)c2ccccc2)c1` (single isomer, unassigned) [818912ES], the Ki (Table 2, read-out: D3K1) came out at 249 nM. Take `O=C(N[C@@H](CO)CCCN1CCN(c2csc3cc(C(F)(F)F)ccc23)CC1)c1ccc2[nH]ccc2c1` [compound 815676]: the Ki reads like this: (Table 2, read-out: D3K1) 224 nM; (read-out: D3K1) 224 nM; under setting [2], 224 nM. As to `Cc1oc(-c2ccccc2)cc1C(=O)NCCCCN1CCCN(c2csc3cc(C(F)(F)F)ccc23)CC1` [S980662], the Ki under setting [5] came to 48 nM.

Consider `O=C(NC/C=C\CN1CCN(c2csc3cc(C(F)(F)F)ccc23)CC1)c1cc2ccccc2s1` [compound 827709], for which, for the setting “read-out: D3K1”, the Ki was determined as 28 nM.

Turning to `O=C(NCCCCN1CCN(c2c(Cl)sc3cc(C(F)(F)F)ccc23)CC1)c1ccco1` [compound 815576], the Ki (read-out: D3K1) came out at 63 nM.

As for `COc1ccc2[nH]c(C(=O)NC[C@@H]3CCCC[C@H]3CN3CCN(c4csc5cc(C(F)(F)F)ccc45)CC3)cc2c1` [compound 826284], where the note is “read-out: D3K1”, the Ki was 77 nM.

In the case of `CC(=O)C1CC(CC(=O)NC/C=C/CN2CCN(c3csc4cc(C(F)(F)F)ccc34)CC2)C1(C)C` (stereo not drawn) [compound 827741], the Ki (Table 2, read-out: D3K1) was determined as 246 nM. Regarding `CC1=C(C(=O)NCc2sccc2CN2CCN(c3csc4cc(F)ccc34)CC2)Cc2ccccc21` [compound 826330], the Ki under setting [7] is 16 nM. Still for that read-out and setting: the same measure for `O=C(NCc1sccc1CN1CCN(c2csc3cc(F)ccc23)CC1)c1n[nH]c2ccccc12` [compound 826329]: 14 nM. As to `O=C(NCCCCN1CCCN(c2csc3cc(F)ccc23)CC1)c1cc2ccccc2s1` [compound 822158], the Ki under setting [5] is 1.1 nM.

As to `O=C(NCc1ccoc1CN1CCN(c2csc3cc(F)ccc23)CC1)c1cccnc1Cl` [compound 825853], for the setting “the 20th table, read-out: D3 Ki”, the Ki was 237 nM.

For `O=C(Cc1ccccc1Br)NCCCCN1CCCN(c2csc3cc(F)ccc23)CC1` [S982512], the Ki under setting [5] is 5.8 nM.

In the case of `O=C(NCCCCN1C2CCC1CC(c1noc3ccccc13)C2)c1ccc(-c2ccccc2)cc1` (stereo not drawn) [compound 816532], the Ki under setting [3] was 56.8 nM.

In the case of `COc1ccc(S(=O)(=O)NCC2CC2CN2CCC(c3noc4ccsc34)CC2)cc1` (stereo not drawn) [compound 831464], the Ki (the 24th table, read-out: D3 Ki) is 43.3 nM. For `NS(=O)(=O)c1ccc(C(=O)NCCCCN2CCCN(c3csc4cc(F)ccc34)CC2)cc1` [compound 817276], the Ki by setting is: (Table 2, read-out: D3K1) 2.44 nM; under setting [1], 2.44 nM. Turning to `Cc1ccc(C(=O)NCCCCN2C3CCC2CC(c2noc4ccccc24)C3)cc1` (stereo not drawn) [compound 816526], the Ki under setting [3] was found to be 375 nM. For the compound `O=C(NC/C=C/CN1CCN(c2csc3cc(C(F)(F)F)ccc23)CC1)c1ccsc1` [compound 827710], the Ki (read-out: D3K1) turned out to be 31 nM. On to `OC(CCN1CCC(c2noc3ccsc23)CC1)CN1CCc2ccccc2C1` (stereo not drawn) [compound 831941], for which the Ki under setting [6] was 161 nM. In the case of `O=C(NCCCCCN1CCN(c2csc3cc(C(F)(F)F)ccc23)CC1)c1cc2ccccc2s1` [compound 826773], the Ki is, setting by setting: (read-out: D3K1) 11 nM; under setting [2], 11 nM. With `CC[C@H]1CC[C@H](NC[C@@H]2C[C@H]2CN2CCN(c3ccccc3C)CC2)CC1` [compound 831876], under setting [4], the Ki was 12 nM. As to `CC1(C)C(CNC(=O)C2CC2c2ccccc2)C1CN1CCN(c2csc3cc(C(F)(F)F)ccc23)CC1` (mixture of isomers) [compound 826283], for the setting “read-out: D3K1”, the Ki was 6.8 nM. Consider `O=C(NCCCCN1CCCN(c2csc3cc(F)ccc23)CC1)c1ccccc1F` [compound 822195], for which the Ki under setting [5] was 4.7 nM. As to `COc1ccc(C(=O)N(Cc2ccccc2)CC2CC2CN2CCCN(c3csc4cc(F)ccc34)CC2)cc1` (racemic) [compound 830394], the Ki (the 17th table, read-out: D3 Ki) worked out at 10.7 nM. Turning to `C[C@@H]1CN(c2csc3cc(F)ccc23)C[C@H](C)N1CCCCNC(=O)c1cccc(C(F)(F)F)c1` [compound 827052], the Ki (the 21st table, read-out: D3 Ki) worked out at 153 nM.

For the compound `O=C(NCCCCCCN1CCN(c2csc3cc(C(F)(F)F)ccc23)CC1)c1cc2ccccc2[nH]1` [compound 816315], the Ki reads like this: (Table 2, read-out: D3K1) 3.7 nM; (read-out: D3K1) 3.7 nM; under setting [2], 3.7 nM.
